Values joined by “and” are separate entries in the source; they are usually repeats but may differ in a detail not shown here. Equal values may be shown once. Read-outs that look alike come from different tables or passages of the source.
Tests used:
[1] = system: MCF-7 cells; assay: cell cytotoxic effects against MCF-7 cells (72 h), A490; format: cell-based, human
[2] = cytotoxicity in Drosophila DL1 cells; format: cell-based; settings: Drosophila, DL1 cells (embryonic macrophage-derived), DL1 cells
Experimental: (§1) We screened the DDPs on the Drosophila assay system for cytotoxicity, inhibitory activity of innate immune signalling and insecticidal activity. The cytotoxicity of the DDPs was evaluated using two cell lines, embryonic macrophage-derived DL1 cells[58]–[60] and larval blood cell-derived l(2)mbn cells, and their IC50 values are listed in Supplementary Table 23.

[3] = system: DL1 cells; assay: cytotoxicity in Drosophila DL1 cells; format: cell-based; settings: DL1 cells; for IC50: Drosophila melanogaster, cytotoxicity
Experimental: as §1

[4] = cytotoxicity in Drosophila l(2)mbn cells; format: cell-based; settings: Drosophila, l(2)mbn cells (larval blood cell-derived)
Experimental: as §1

[5] = system: l(2)mbn cells; assay: cytotoxicity in Drosophila l(2)mbn cells; format: cell-based; settings: for Luminescence Raw1: replicate 1; for Luminescence Raw2: replicate 2; for IC50: Drosophila melanogaster, cytotoxicity
Experimental: as §1

[6] = system: human immunodeficiency virus-1 (HIV-1); assay: anti-HIV MAGI assay; format: cell-based; settings: Human immunodeficiency virus 1, MAGI, anti-HIV, MAGI assay; read-out: EC50
Text: We examined the inhibitory activities of DDPs against various species of bacteria (both gram-negative and gram-positive bacteria), fungi and viruses. […] In contrast, preliminary screening of the DDPs for anti-viral agents with hepatitis B virus (HBV), measles virus (MV), Epstein-Barr virus (EBV), herpes simplex virus (HSV) and human immunodeficiency virus-1 (HIV-1) indicated their selective inhibition of HIV.

[7] = system: MAGI cells; assay: cytotoxicity in the anti-HIV assay (CC50); format: cell-based
[8] = replicate 1, relative to DMSO 1%, read-out: % viability, viability 1
[9] = replicate 2, relative to DMSO 1%, read-out: % viability, viability 2
[10] = average of two replicates, read-out: IC50 Average
[11] = replicate 1, read-out: IC50 (1)
[12] = replicate 2, read-out: IC50 (2)

**Q.** Which “cytotoxicity against the bulk of MCF-7 cells” value [1] does the source give for `C=C1CCC2C3(C)CC(C=C(C)C)OC3CCC2(C)C1Cc1c(OC)oc(C)c(C)c1=O` (stereo not drawn) [Compound 23] here?
**A.** dose-dependent cytotoxicity

**Q.** And the viability at 0.1 µM ([1]; Homo sapiens, MCF7, 72 h, MCF-7, 72 h, 0.1 µM (DMSO 0.002%), read-out: A490 (control =1) ave)?
**A.** 62.5%

**Q.** What about the viability at 1 µM ([1]; Homo sapiens, MCF7, 72 h, MCF-7, 72 h, 1 µM (DMSO 0.02%), read-out: A490 (control =1) ave) of the same compound?
**A.** 21.6%

**Q.** And the viability at 10 µM ([1]; Homo sapiens, MCF7, 72 h, MCF-7, 72 h, 10 µM (DMSO 0.2%), read-out: A490 (control =1) ave)?
**A.** 14.8%

**Q.** And the A490 ave ([1]; MCF-7, 72 h, 0.1 µM (DMSO 0.002%), control 1.064)?
**A.** 0.664

**Q.** And the A490 ave ([1]; MCF-7, 72 h, 1 µM (DMSO 0.02%), control 1.104)?
**A.** 0.239

**Q.** What about the A490 ave ([1]; MCF-7, 72 h, 10 µM (DMSO 0.2%), control 1.049) of the same compound?
**A.** 0.155

**Q.** And the viability at 0.04 µM [2, 8]?
**A.** 80.6%

**Q.** And the viability at 0.04 µM [2, 9]?
**A.** 110%

**Q.** What about the viability at 0.2 µM [2, 8] of the same compound?
**A.** 21.3%

**Q.** And the viability at 0.2 µM [2, 9]?
**A.** 27.7%

**Q.** And the viability at 1 µM [2, 8]?
**A.** 7.72%

**Q.** What about the viability at 1 µM [2, 9] of the same compound?
**A.** 9.91%

**Q.** And the viability at 4 µM [2, 8]?
**A.** 8.03%

**Q.** What about the viability at 4 µM [2, 9] of the same compound?
**A.** 7.75%

**Q.** And the viability at 10 µM [2, 8]?
**A.** 4.94%

**Q.** And the viability at 10 µM [2, 9]?
**A.** 5.43%

**Q.** And the viability at 20 µM [2, 8]?
**A.** 8.44%

**Q.** And the viability at 20 µM [2, 9]?
**A.** 8.21%

**Q.** What about the “Luminescence Raw1” value ([3]; 0.04 µM, replicate 1) of the same compound?
**A.** 1660895

**Q.** What about the “Luminescence Raw2” value ([3]; 0.04 µM, replicate 2) of the same compound?
**A.** 2275454

**Q.** And the “Luminescence Raw1” value ([3]; 0.2 µM, replicate 1)?
**A.** 438070

**Q.** What about the “Luminescence Raw2” value ([3]; 0.2 µM, replicate 2) of the same compound?
**A.** 571485

**Q.** What about the “Luminescence Raw1” value ([3]; 1 µM, replicate 1) of the same compound?
**A.** 158989

**Q.** And the “Luminescence Raw2” value ([3]; 1 µM, replicate 2)?
**A.** 204060

**Q.** What about the “Luminescence Raw1” value ([3]; 4 µM, replicate 1) of the same compound?
**A.** 165479

**Q.** And the “Luminescence Raw2” value ([3]; 4 µM, replicate 2)?
**A.** 159710

**Q.** What about the “Luminescence Raw1” value ([3]; 10 µM, replicate 1) of the same compound?
**A.** 101660

**Q.** And the “Luminescence Raw2” value ([3]; 10 µM, replicate 2)?
**A.** 111756

**Q.** And the “Luminescence Raw1” value ([3]; 20 µM, replicate 1)?
**A.** 173772

**Q.** What about the “Luminescence Raw2” value ([3]; 20 µM, replicate 2) of the same compound?
**A.** 169085

**Q.** What about the IC50 [3, 10] of the same compound?
**A.** 130 nM

**Q.** And the IC50 ([3]; average±SEM, read-out: IC50)?
**A.** 130 ± 40 nM

**Q.** And the IC50 [3, 11]?
**A.** 94 nM

**Q.** What about the IC50 [3, 12] of the same compound?
**A.** 167 nM

**Q.** And the viability at 0.04 µM [4, 8]?
**A.** 122%

**Q.** And the viability at 0.04 µM [4, 9]?
**A.** 135%

**Q.** And the viability at 0.2 µM [4, 8]?
**A.** 126%

**Q.** What about the viability at 0.2 µM [4, 9] of the same compound?
**A.** 141%

**Q.** And the viability at 1 µM [4, 8]?
**A.** 44.7%

**Q.** What about the viability at 1 µM [4, 9] of the same compound?
**A.** 72.6%

**Q.** And the viability at 4 µM [4, 8]?
**A.** 8.9%

**Q.** And the viability at 4 µM [4, 9]?
**A.** 9.14%

**Q.** And the viability at 10 µM [4, 8]?
**A.** 7.01%

**Q.** What about the viability at 10 µM [4, 9] of the same compound?
**A.** 6.89%

**Q.** And the viability at 20 µM [4, 8]?
**A.** 6.91%

**Q.** And the viability at 20 µM [4, 9]?
**A.** 6.4%

**Q.** And the “Luminescence Raw1” value ([5]; 0.04 µM)?
**A.** 3121216

**Q.** What about the “Luminescence Raw2” value ([5]; 0.04 µM) of the same compound?
**A.** 3467512

**Q.** What about the “Luminescence Raw1” value ([5]; 0.2 µM) of the same compound?
**A.** 3228350

**Q.** And the “Luminescence Raw2” value ([5]; 0.2 µM)?
**A.** 3607479

**Q.** What about the “Luminescence Raw1” value ([5]; 1 µM) of the same compound?
**A.** 1147296

**Q.** And the “Luminescence Raw2” value ([5]; 1 µM)?
**A.** 1863873

**Q.** What about the “Luminescence Raw1” value ([5]; 4 µM) of the same compound?
**A.** 228513

**Q.** What about the “Luminescence Raw2” value ([5]; 4 µM) of the same compound?
**A.** 234642

**Q.** What about the “Luminescence Raw1” value ([5]; 10 µM) of the same compound?
**A.** 179837

**Q.** And the “Luminescence Raw2” value ([5]; 10 µM)?
**A.** 176952

**Q.** What about the “Luminescence Raw1” value ([5]; 20 µM) of the same compound?
**A.** 177313

**Q.** What about the “Luminescence Raw2” value ([5]; 20 µM) of the same compound?
**A.** 164332

**Q.** And the IC50 [5, 10]?
**A.** 1580 nM

**Q.** And the IC50 ([5]; average±SEM, read-out: IC50)?
**A.** 1580 ± 350 nM

**Q.** And the IC50 [5, 11]?
**A.** 1230 nM

**Q.** What about the IC50 [5, 12] of the same compound?
**A.** 1920 nM

**Q.** And the EC50 [6]?
**A.** < 200 nM

**Q.** What about the “Cytotoxicity Avg.” value ([7]; average of numeric determinations) of the same compound?
**A.** 5.617 µM

**Q.** And the Cytotoxicity ([7]; single determinations)?
**A.** 5.032 µM and 7.537 µM and 4.281 µM

— article PMC7156458, “Synthetic biology based construction of biological activity-related library of fungal decalin-containing diterpenoid pyrones” (Nature Communications, 2020)
